Measurements published in US20110207751A1, “HETEROCYCLIC COMPOUNDS AND USES AS ANTICANCER AGENTS” (priority 2010, published 2011).
Where a name gives a salt, the structure may show the parent alone.

Experiments:
Assay in all cases: Inhibition of cell proliferation, xCelligence cell index
Assay type in all cases: cell-based
[1] = test system: H596 cells (human adenosquamous lung carcinoma cell line); settings: NCI-H596, 72 hr post compound treatment, read-out: calculated IC50
Description: (§1) The biological activity of compounds disclosed herein was monitored and profiled using the Real-Time Cell Electronic Sensing (RT-CES®) system from ACEA Biosciences, Inc. The RT-CES system utilizes cell-substrate impedance technology to monitor cellular behavior inside tissue culture wells in a microtiter plate format. The technology features in the integration of molecular and cell biology with microelectronics and is based on the electronic detection of biological assay process. The details of this cell electronic sensing technology and associated devices, systems and methods of use are described in U.S. Pat. No. 7,167,585; U.S. Pat. No. 7,468,255; PCT publication number WO 2004/010102; U.S. Pat. No. 7,470,533; and U.S. Pat. No. 7,459,303, each of which is incorporated herein by reference. Additional details of RT-CES technology are further disclosed in U.S. Pat. No. 7,468,255.
(§2) For measurement of cell-substrate or cell-electrode impedance using RT-CES technology, microelectrodes having appropriate geometries are fabricated onto the bottom surfaces of microtiter plate or similar device, facing into the wells. […] When there are changes to the biological status of the cells analogue electronic readout signals are measured automatically and in real time, and are converted to digital signals for processing and for analysis. In a RT-CES system, a cell index (arbitrary representation of change in impedance) is automatically derived and provided based on measured electrode impedance values. […]
(§3) To quantify cell status based on the measured cell-electrode impedance, a parameter termed Cell Index is derived. Cell Index is a quantitative measure of the status of the cells in an electrode-containing well. […]
(§4) H596 cells (human adenosquamous lung carcinoma cell line) were seeded into wells of 96 well E-plate devices (Roche) with an initial seeding density of 5000 cells per well and were pre-incubated in incubator under standard cell culture condition for about 24 hours. […] The cell status was monitored prior to and after the compound addition using xCelligence system (Roche). […]

[2] = test system: SW1088 cells (human brain cancer cell line); settings: 72 hr post compound treatment, read-out: calculated IC50
Description: For measurement of cell-substrate or cell-electrode impedance using RT-CES technology, microelectrodes having appropriate geometries are fabricated onto the bottom surfaces of microtiter plate or similar device, facing into the wells. Cells are introduced into the wells of the devices, and make contact to and attach to the electrode surfaces. The presence, absence or change of properties of cells affects the electronic and ionic passage on the electrode sensor surfaces. Measuring the impedance between or among electrodes provides important information about biological status of cells present on the sensors. When there are changes to the biological status of the cells analogue electronic readout signals are measured automatically and in real time, and are converted to digital signals for processing and for analysis. In a RT-CES system, a cell index (arbitrary representation of change in impedance) is automatically derived and provided based on measured electrode impedance values. The cell index obtained for a given well reflects: 1) how many cells are attached to the electrode surfaces in this well; 2) how well cells are attached to the electrode surfaces in this well. […]
SW1088 cells (human brain cancer cell line) were seeded into wells of 96 well E-plate devices (Roche) with an initial seeding density of 5000 cells per well and were pre-incubated in incubator under standard cell culture condition for about 24 hours. […] The cell status was monitored prior to and after the compound addition using xCelligence system (Roche). […]

[3] = test system: NCI-H460 cells (human large cell lung carcinoma cell line); settings: 72 hr post compound treatment, read-out: calculated IC50
Description: as §1, §2, §3
as §4, with “NCI-H460” for “H596”, “large cell” for “adenosquamous”

[4] = test system: GTL16 cells (human gastric cancer cell line); settings: GTL 16, 72 hr post compound treatment, read-out: calculated IC50
Description: as §1
For measurement of cell-substrate or cell-electrode impedance using RT-CES technology, microelectrodes having appropriate geometries are fabricated onto the bottom surfaces of microtiter plate or similar device, facing into the wells. Cells are introduced into the wells of the devices, and make contact to and attach to the electrode surfaces. The presence, absence or change of properties of cells affects the electronic and ionic passage on the electrode sensor surfaces. Measuring the impedance between or among electrodes provides important information about biological status of cells present on the sensors. When there are changes to the biological status of the cells analogue electronic readout signals are measured automatically and in real time, and are converted to digital signals for processing and for analysis. In a RT-CES system, a cell index (arbitrary representation of change in impedance) is automatically derived and provided based on measured electrode impedance values. […]
as §3

[5] = test system: U138MG cells (human brain cancer cell line); settings: U138-MG, 72 hr post compound treatment, read-out: calculated IC50
Description: U138MG cells (human brain cancer cell line) were seeded into wells of 96 well E-plate devices (Roche) with an initial seeding density of 5000 cells per well and were pre-incubated in incubator under standard cell culture condition for about 24 hours. […] The cell status was monitored prior to and after the compound addition using xCelligence system (Roche). […]

| SMILES | IC50 [1] [µM] | IC50 [2] [µM] | IC50 [3] [µM] | IC50 [4] [µM] | IC50 [5] [µM] |
| --- | --- | --- | --- | --- | --- |
| CCc1ccc(Nc2nc(-c3c(C)nc4sccn34)cs2)cc1 [COMPOUND O, 2-(4-ethylphenyl)amino-4-(6-methylimidazo[2,1-b]thiazol-5-yl)-thiazole monohydrobromide] | 0.0379 | 0.0212 | 0.0109 | 0.067 | 0.00341 |
| CC(=O)O[C@H]1C(=O)[C@@]2(C)[C@H]([C@H](OC(=O)c3ccccc3)[C@]3(O)C[C@H](OC(=O)[C@H](O)[C@@H](NC(=O)c4ccccc4)c4ccccc4)C(C)=C1C3(C)C)[C@]1(OC(C)=O)CO[C@@H]1C[C@@H]2O [paclitaxel] | 0.0125 | 0.0131 | 0.00268 | 0.00102 | 0.0181 |
| CC[C@]1(O)C[C@H]2CN(CCc3c([nH]c4ccccc34)[C@@](C(=O)OC)(c3cc4c(cc3OC)N(C=O)[C@H]3[C@@](O)(C(=O)OC)[C@H](OC(C)=O)[C@]5(CC)C=CCN6CC[C@]43[C@@H]65)C2)C1 [vincristine] | 0.0369 | 0.00496 | 0.0104 | 0.00375 | 0.000641 |
